Read-outs that look alike come from different tables or passages of the source.
How the values were obtained:
Type in all cases: cell-based, P. aeruginosa
PA-002, blaIMP [1] = test: MIC / checkerboard with ATM; set-up: key to Susceptibility category: S: susceptible; I: intermediate; R: resistant; settings: for MIC: Pseudomonas aeruginosa
PA-009, blaGES = test: MIC / checkerboard with ATM; set-up: key to Susceptibility category: S: susceptible; I: intermediate; R: resistant
PA-038, blaNDM = test: MIC / checkerboard with ATM; set-up: key to Susceptibility category: S: susceptible; I: intermediate; R: resistant; settings: PA-038
PA-025, blaNDM = test: MIC / checkerboard with ATM; set-up: key to Susceptibility category: S: susceptible; I: intermediate; R: resistant; settings: PA-025
PA-002, blaIMP [2] = test: Time–kill assay; settings: 24 h
Method: Aliquots (50 μL) were taken from the incubation mixture at regular time intervals (t = 0, 3, 6, and 24 h), serially diluted in 0.85% NaCl solution, and plated on BAP. Bacterial colonies were counted, and the data are presented as the means of at least three independent experiments.

PA-021, blaIMP = test: MIC / checkerboard with ATM; set-up: key to Susceptibility category: S: susceptible; I: intermediate; R: resistant; settings: for MIC: Pseudomonas aeruginosa
PA-041, blaNDM = test: MIC / checkerboard with ATM; set-up: key to Susceptibility category: S: susceptible; I: intermediate; R: resistant; settings: for MIC: Pseudomonas aeruginosa
PA-026, blaNDM = test: MIC / checkerboard with ATM; set-up: key to Susceptibility category: S: susceptible; I: intermediate; R: resistant
PA-034, blaNDM = test: MIC / checkerboard with ATM; set-up: key to Susceptibility category: S: susceptible; I: intermediate; R: resistant; settings: PA-034
PA-029, blaIMP = test: MIC / checkerboard with ATM; set-up: key to Susceptibility category: S: susceptible; I: intermediate; R: resistant; settings: for MIC: Pseudomonas aeruginosa
PA-014, blaGES = test: MIC / checkerboard with ATM; set-up: key to Susceptibility category: S: susceptible; I: intermediate; R: resistant
PA-040, blaNDM = test: MIC / checkerboard with ATM; set-up: key to Susceptibility category: S: susceptible; I: intermediate; R: resistant; settings: for MIC: Pseudomonas aeruginosa
PA-016, blaIMP = test: MIC / checkerboard with ATM; set-up: key to Susceptibility category: S: susceptible; I: intermediate; R: resistant
PA-032, blaIMP = test: MIC / checkerboard with ATM; set-up: key to Susceptibility category: S: susceptible; I: intermediate; R: resistant; settings: for MIC: Pseudomonas aeruginosa

MIC (PA-002, blaIMP [1]; PA-002, Table S2, read-out: MIC value): 32 µg/mL
MIC (PA-002, blaIMP [1]; read-out: MIC of ATM, PA-002, ATM alone (5 at 0 mg/L)): 32 µg/mL
MIC (PA-009, blaGES; Pseudomonas aeruginosa, read-out: MIC of ATM, PA-009, ATM alone (5 at 0 mg/L)): 32 µg/mL
MIC (PA-021, blaIMP; PA-021, Table S2, read-out: MIC value): 1 µg/mL
MIC (PA-021, blaIMP; read-out: MIC of ATM, PA-021, ATM alone (5 at 0 mg/L)): 1 µg/mL
MIC (PA-041, blaNDM; PA-041, Table S2, read-out: MIC value): 4 µg/mL
MIC (PA-041, blaNDM; read-out: MIC of ATM, PA-041, ATM alone (5 at 0 mg/L)): 4 µg/mL
MIC (PA-026, blaNDM; Pseudomonas aeruginosa, read-out: MIC of ATM, PA-026, ATM alone (5 at 0 mg/L)): 8 µg/mL
MIC (PA-029, blaIMP; PA-029, Table S2, read-out: MIC value): 32 µg/mL
MIC (PA-029, blaIMP; read-out: MIC of ATM, PA-029, ATM alone (5 at 0 mg/L)): 32 µg/mL
MIC (PA-014, blaGES; Pseudomonas aeruginosa, read-out: MIC of ATM, PA-014, ATM alone (5 at 0 mg/L)): 16 µg/mL
MIC (PA-040, blaNDM; PA-040, Table S2, read-out: MIC value): 4 µg/mL
MIC (PA-040, blaNDM; read-out: MIC of ATM, PA-040, ATM alone (5 at 0 mg/L)): 4 µg/mL
MIC (PA-016, blaIMP; Pseudomonas aeruginosa, read-out: MIC of ATM, PA-016, ATM alone (5 at 0 mg/L)): 32 µg/mL
MIC (PA-032, blaIMP; PA-032, Table S2, read-out: MIC value): 4 µg/mL
MIC (PA-032, blaIMP; read-out: MIC of ATM, PA-032, ATM alone (5 at 0 mg/L)): 4 µg/mL
SMILES: C[C@H]1[C@H](NC(=O)/C(=N\OC(C)(C)C(=O)O)c2csc(N)n2)C(=O)N1S(=O)(=O)O [ATM, aztreonam]
Susceptibility to ATM (PA-002, blaIMP [1]; PA-002, ATM alone): R (R (resistant, MIC ≥ 32 mg/L))
Susceptibility category (PA-002, blaIMP [1]; PA-002, Table S2): R
Susceptibility to ATM (PA-009, blaGES; PA-009, ATM alone): R (R (resistant, MIC ≥ 32 mg/L))
Susceptibility category (PA-009, blaGES; PA-009, Table S2): R
Susceptibility to ATM (PA-038, blaNDM; ATM alone): I (I (intermediate, MIC = 16 mg/L))
Susceptibility category (PA-038, blaNDM; Table S2): I
Susceptibility to ATM (PA-025, blaNDM; ATM alone): I (I (intermediate, MIC = 16 mg/L))
Susceptibility category (PA-025, blaNDM; Table S2): I
Log CFU/mL, ATM only (PA-002, blaIMP [2]; ATM 1/2 MIC): 9.02 Log CFU/mL
Log CFU/mL, ATM only (PA-002, blaIMP [2]; ATM 1/4 MIC): 9.48 Log CFU/mL
Log CFU/mL, ATM only (PA-002, blaIMP [2]; ATM 1 MIC): 8.15 Log CFU/mL
Log CFU/mL, ATM only (PA-002, blaIMP [2]; ATM 2 MIC): 5.50 Log CFU/mL
Susceptibility to ATM (PA-021, blaIMP; PA-021, ATM alone): S (S (sensitive, MIC ≤ 8 mg/L))
Susceptibility category (PA-021, blaIMP; PA-021, Table S2): S
Susceptibility to ATM (PA-041, blaNDM; PA-041, ATM alone): S (S (sensitive, MIC ≤ 8 mg/L))
Susceptibility category (PA-041, blaNDM; PA-041, Table S2): S
Susceptibility to ATM (PA-026, blaNDM; PA-026, ATM alone): S (S (sensitive, MIC ≤ 8 mg/L))
Susceptibility category (PA-026, blaNDM; PA-026, Table S2): S
Susceptibility to ATM (PA-034, blaNDM; ATM alone): I (I (intermediate, MIC = 16 mg/L))
Susceptibility category (PA-034, blaNDM; Table S2): I
Susceptibility to ATM (PA-029, blaIMP; PA-029, ATM alone): R (R (resistant, MIC ≥ 32 mg/L))
Susceptibility category (PA-029, blaIMP; PA-029, Table S2): R
Susceptibility to ATM (PA-014, blaGES; PA-014, ATM alone): I (I (intermediate, MIC = 16 mg/L))
Susceptibility category (PA-014, blaGES; PA-014, Table S2): I
Susceptibility to ATM (PA-040, blaNDM; PA-040, ATM alone): S (S (sensitive, MIC ≤ 8 mg/L))
Susceptibility category (PA-040, blaNDM; PA-040, Table S2): S
Susceptibility to ATM (PA-016, blaIMP; PA-016, ATM alone): R (R (resistant, MIC ≥ 32 mg/L))
Susceptibility category (PA-016, blaIMP; PA-016, Table S2): R
Susceptibility to ATM (PA-032, blaIMP; PA-032, ATM alone): S (S (sensitive, MIC ≤ 8 mg/L))
Susceptibility category (PA-032, blaIMP; PA-032, Table S2): S
